The values below come from ChEMBL document CHEMBL1140017, “Anti-AIDS agents 72. Bioisosteres (7-carbon-DCKs) of the potent anti-HIV lead DCK” (Bioorg Med Chem Lett, 2007).

Each structure is given as a SMILES string. A value given as a limit tells only on which side of the number the result lay.

Data set [1] relates to Human immunodeficiency virus. In words: Antiviral activity against HIV replication in H9 cells. In kind it is functional, organism-based. As to conditions: Human immunodeficiency virus 1, H9.
Another data set has as its system H9. In words: Cytotoxicity against H9 cells assessed as growth inhibition. The format is cell-based. As to conditions: Homo sapiens.
A short description of data set [2]: Therapeutic index, IC50 for H9 cells to EC50 for HIV. In kind it is cell-based. As to conditions: human, read-out: Ratio IC50/EC50.

With `CC12CCC(C(=O)O[C@H]3CCc4ccc5ccc(=O)oc5c4[C@H]3OC(=O)C34CCC(C)(C(=O)O3)C4(C)C)(OC1=O)C2(C)C` (stereo partly specified), in data set [1], the EC50 came out at 68 nM. Besides, the IC50 with H9 stood at 57200 nM. Further, in data set [2], the selectivity ratio came to 841.
In turn, `Cc1cc(=O)oc2c3c(ccc12)CC(C)(C)[C@H](OC(=O)C12CCC(C)(C(=O)O1)C2(C)C)[C@@H]3OC(=O)C12CCC(C)(C(=O)O1)C2(C)C` (stereo partly specified) registered an EC50 in data set [1] of less than 390 nM. The IC50 in the data set with H9 is greater than 39400 nM. For the same compound, the selectivity ratio in data set [2] is greater than 100.
`Cc1cc(=O)oc2c3c(ccc12)CC[C@H](OC(=O)C12CCC(C)(C(=O)O1)C2(C)C)[C@@H]3OC(=O)C12CCC(C)(C(=O)O1)C2(C)C` (stereo partly specified) had an EC50 in data set [1] of 83 nM. In addition, the IC50 with H9 is 54400 nM. Further, the selectivity ratio in data set [2] is 659.
For `Cc1cn([C@H]2C[C@H](N=[N+]=[N-])[C@@H](CO)O2)c(=O)[nH]c1=O` [ZIDOVUDINE], the EC50 in data set [1] is 13.7 nM. Moreover, the selectivity ratio in data set [2] amounted to 36500.

Broadly, the EC50 is the concentration needed to bring the measured effect to its halfway point. Read a low EC50 as a more potent agent. Broadly, the IC50 is the concentration at which inhibition is half-maximal.
